Assay results as given in patent US4477458A, “Thiazolidine derivatives and their mucolytic compositions and methods” (Camillo Corvi S.p.A., priority 1981, dated 1984).
Where a name gives a salt, the structure may show the parent alone.

Columns and labels:
[1] = test system: mucus production of rabbit; test: Activity on mucus production of rabbit (method of R. Scuri and Coll.); assay type: in vivo; settings: for Mucoproduction at hours 0 - 4: mean ± E.S.
gastric mucin of the pig = test: "in vitro" viscosity of gastric mucin of the pig (Contraves Rehomat microviscosimeter); settings: conc. 2 %; for Viscosity of gastric mucin: 0.1 ml; for Viscosity of gastric mucin, Var. %: vs Mucin + H2O
Procedure: The pharmacological activity was measured by studying the effect on the compound (CO/1177) on: (c) "in vitro" viscosity of gastric mucin of the pig by using, for the viscometer measures, a Contraves Rehomat microviscosimeter at 15 automatic scanning speeds.

[2] = test system: mucus of sound animals (rabbits); test: Fluidizing activity - viscosity of mucus of sound animals (Contraves Rehomat microviscosimeter); assay type: in vivo, rabbit; settings: 20 mg/kg i.v.
Procedure: (§1) The pharmacological activity was measured by studying the effect on the compound (CO/1177) on:
(§2) (b) viscosity of mucus of sound animals (rabbits) and/or of animals made bronchitic experimentally by using, for the viscosimeter measures, a Contraves Rehomat microviscosimeter at 15 automatic scanning speeds;

[3] = test system: mucus of animals made bronchitic experimentally; test: Fluidizing activity - viscosity of mucus of experimentally bronchitic animals (Contraves Rehomat microviscosimeter); assay type: in vivo, rabbit; settings: 20 mg/kg i.v.
Procedure: as §1, §2

Acute toxicity, mouse = settings: in vivo
Procedure: (§3) The acute and subacute toxicity tests were performed by using Swiss mice and Wistar rats of both sexes.

Acute toxicity, rat = settings: in vivo
Procedure: as §3

Acute toxicity, rabbit = settings: in vivo, iv
[4] = Oryctolagus cuniculus, iv, 10 mg/kg i.v., 0-4 h vs -4-0 h, read-out: Mucoproduction Var. %
[5] = Oryctolagus cuniculus, iv, 5 mg/kg i.v., 0-4 h vs -4-0 h, read-out: Mucoproduction Var. %
[6] = Oryctolagus cuniculus, po, 400 mg/kg os, 0-4 h vs -4-0 h, read-out: Mucoproduction Var. %
[7] = Oryctolagus cuniculus, po, 600 mg/kg os, 0-4 h vs -4-0 h, read-out: Mucoproduction Var. %

## O=C(O)c1cccnc1C(=O)N1CCSC1 [CO/1242, 2-(1,3-thiazolidin-3-yl)-carbonyl-3-pyridine-carboxylic acid (Na salt)]
[1]; 10 mg/kg i.v.
  Mucoproduction at hours 0 - 4: 31.030 ± 2.840 mg/h
[1]; [4]
  change in vivo at 10 mg/kg: 39%

## CC(=O)N[C@@H](CS)C(=O)O [N--Acetylcysteine, reference compound]
[1]; 5 mg/kg i.v.
  Mucoproduction at hours 0 - 4: 29.058 ± 0.946 mg/h
[1]; 10 mg/kg i.v.
  Mucoproduction at hours 0 - 4: 30.988 ± 1.078 mg/h
[1]; 400 mg/kg os
  Mucoproduction at hours 0 - 4: 22.713 ± 0.947 mg/h
[1]; 600 mg/kg os
  Mucoproduction at hours 0 - 4: 32.512 ± 1.365 mg/h
[1]; [5]
  change in vivo at 5 mg/kg: 29.2%
[1]; [4]
  change in vivo at 10 mg/kg: 49.8%
[1]; [6]
  change in vivo at 400 mg/kg: 4.7%
[1]; [7]
  change in vivo at 600 mg/kg: 39.4%
Gastric mucin of the pig; speed 17.4 g/min
  Viscosity of gastric mucin: 25.64 cps
  Viscosity of gastric mucin, Var. %: -11.9%
Gastric mucin of the pig; speed 25 g/min
  Viscosity of gastric mucin: 25.20 cps
  Viscosity of gastric mucin, Var. %: -8.1%
Gastric mucin of the pig; speed 33.6 g/min
  Viscosity of gastric mucin: 24.30 cps
Gastric mucin of the pig; speed 44.3 g/min
  Viscosity of gastric mucin: 23.32 cps
  Viscosity of gastric mucin, Var. %: -12.4%
Gastric mucin of the pig; speed 56.1 g/min
  Viscosity of gastric mucin: 23.77 cps
  Viscosity of gastric mucin, Var. %: -8.1%
Gastric mucin of the pig; speed 77.9 g/min
  Viscosity of gastric mucin: 20.30 cps
  Viscosity of gastric mucin, Var. %: -11.1%
Gastric mucin of the pig; speed 113.2 g/min
  Viscosity of gastric mucin: 19.41 cps
  Viscosity of gastric mucin, Var. %: -10.1%
Gastric mucin of the pig; speed 152 g/min
  Viscosity of gastric mucin: 17.94 cps
  Viscosity of gastric mucin, Var. %: -8%
Gastric mucin of the pig; speed 200 g/min
  Viscosity of gastric mucin: 16.19 cps
  Viscosity of gastric mucin, Var. %: -11.1%
Gastric mucin of the pig; speed 266.8 g/min
  Viscosity of gastric mucin: 14.52 cps
  Viscosity of gastric mucin, Var. %: -12.1%
Gastric mucin of the pig; speed 352 g/min
  Viscosity of gastric mucin: 13.70 cps
  Viscosity of gastric mucin, Var. %: -8.1%

## O=C(O)c1ccccc1C(=O)N1CCSC1 [CO/1177, 2-(1,3-thiazolidin-3-yl)-carbonyl-benzoic acid (Na salt)]
[1]; 2.5 mg/kg i.v.
  Mucoproduction at hours 0 - 4: 52.760 ± 20.29 mg/h
[1]; 5 mg/kg i.v.
  Mucoproduction at hours 0 - 4: 37.650 ± 0.231 mg/h
[1]; 10 mg/kg i.v.
  Mucoproduction at hours 0 - 4: 49.250 ± 6.020 mg/h
[1]; 100 mg/kg os
  Mucoproduction at hours 0 - 4: 34.320 ± 5.850 mg/h
[1]; 200 mg/kg os
  Mucoproduction at hours 0 - 4: 86.250 ± 10.80 mg/h
[1]; 400 mg/kg os
  Mucoproduction at hours 0 - 4: 30.730 ± 7.630 mg/h
[1]; Oryctolagus cuniculus, iv, 2.5 mg/kg i.v., 0-4 h vs -4-0 h, read-out: Mucoproduction Var. %
  change in vivo at 2.5 mg/kg: 32%
[1]; [5]
  change in vivo at 5 mg/kg: 34.6%
[1]; [4]
  change in vivo at 10 mg/kg: 71%
[1]; Oryctolagus cuniculus, po, 100 mg/kg os, 0-4 h vs -4-0 h, read-out: Mucoproduction Var. %
  change in vivo at 100 mg/kg: 16.3%
[1]; Oryctolagus cuniculus, po, 200 mg/kg os, 0-4 h vs -4-0 h, read-out: Mucoproduction Var. %
  change in vivo at 200 mg/kg: 51.2%
[1]; [6]
  change in vivo at 400 mg/kg: 97.6%
[2]; speed 17.4 g/min
  Viscosity Var. %: -100%
  Viscosity, time 0-24: 0 cps
[2]; speed 25 g/min
  Viscosity Var. %: -81.7%
  Viscosity, time 0-24: 0.88 cps
[2]; speed 33.6 g/min
  Viscosity Var. %: -78.6%
  Viscosity, time 0-24: 1.97 cps
[2]; speed 44.3 g/min
  Viscosity Var. %: -71.5%
  Viscosity, time 0-24: 2.00 cps
[2]; speed 56.1 g/min
  Viscosity Var. %: -67.6%
  Viscosity, time 0-24: 2.43 cps
[2]; speed 77.9 g/min
  Viscosity Var. %: -53.6%
  Viscosity, time 0-24: 2.55 cps
[2]; speed 113.2 g/min
  Viscosity Var. %: -37.7%
  Viscosity, time 0-24: 2.25 cps
[2]; speed 152 g/min
  Viscosity Var. %: -36.3%
  Viscosity, time 0-24: 2.18 cps
[2]; speed 200 g/min
  Viscosity Var. %: -41.4%
  Viscosity, time 0-24: 2.04 cps
[2]; speed 266.8 g/min
  Viscosity Var. %: -39.2%
  Viscosity, time 0-24: 1.94 cps
[2]; speed 352 g/min
  Viscosity Var. %: -37.4%
  Viscosity, time 0-24: 1.91 cps
[3]; speed 17.4 g/min
  Viscosity, time 0-24: 50.30 cps
[3]; speed 25 g/min
  Viscosity Var. %: -58.4%
  Viscosity, time 0-24: 41.5 cps
[3]; speed 33.6 g/min
  Viscosity Var. %: -60%
  Viscosity, time 0-24: 28.70 cps
[3]; speed 44.3 g/min
  Viscosity Var. %: -56.6%
  Viscosity, time 0-24: 22.4 cps
[3]; speed 56.1 g/min
  Viscosity Var. %: -51.9%
  Viscosity, time 0-24: 14.50 cps
[3]; speed 77.9 g/min
  Viscosity Var. %: -60.9%
  Viscosity, time 0-24: 10.7 cps
[3]; speed 113.2 g/min
  Viscosity Var. %: -63.8%
  Viscosity, time 0-24: 6.7 cps
[3]; speed 152 g/min
  Viscosity Var. %: -68.1%
  Viscosity, time 0-24: 5.2 cps
[3]; speed 200 g/min
  Viscosity Var. %: -66.7%
  Viscosity, time 0-24: 4.0 cps
[3]; speed 266.8 g/min
  Viscosity Var. %: -71.8%
  Viscosity, time 0-24: 2.4 cps
[3]; speed 352 g/min
  Viscosity Var. %: -68.9%
  Viscosity, time 0-24: 1.9 cps
Gastric mucin of the pig; speed 17.4 g/min
  Viscosity of gastric mucin: 24.87 cps
  Viscosity of gastric mucin, Var. %: -10.9%
Gastric mucin of the pig; speed 25 g/min
  Viscosity of gastric mucin: 22.39 cps
  Viscosity of gastric mucin, Var. %: -19.1%
Gastric mucin of the pig; speed 33.6 g/min
  Viscosity of gastric mucin: 24.05 cps
  Viscosity of gastric mucin, Var. %: -10.1%
Gastric mucin of the pig; speed 44.3 g/min
  Viscosity of gastric mucin: 22.92 cps
  Viscosity of gastric mucin, Var. %: -14.1%
Gastric mucin of the pig; speed 56.1 g/min
  Viscosity of gastric mucin: 23.14 cps
  Viscosity of gastric mucin, Var. %: -11%
Gastric mucin of the pig; speed 77.9 g/min
  Viscosity of gastric mucin: 20.91 cps
  Viscosity of gastric mucin, Var. %: -15.4%
Gastric mucin of the pig; speed 113.2 g/min
  Viscosity of gastric mucin: 20.88 cps
  Viscosity of gastric mucin, Var. %: -8.1%
Gastric mucin of the pig; speed 152 g/min
  Viscosity of gastric mucin: 18.81 cps
  Viscosity of gastric mucin, Var. %: -9.1%
Gastric mucin of the pig; speed 200 g/min
  Viscosity of gastric mucin: 17.24 cps
  Viscosity of gastric mucin, Var. %: -8.1%
Gastric mucin of the pig; speed 266.8 g/min
  Viscosity of gastric mucin: 15.48 cps
  Viscosity of gastric mucin, Var. %: -10%
Gastric mucin of the pig; speed 352 g/min
  Viscosity of gastric mucin: 14.29 cps
  Viscosity of gastric mucin, Var. %: -7.1%
Acute toxicity, mouse; iv
  LD50: 3000 mg/kg
Acute toxicity, mouse; po
  LD50: > 5000 mg/kg
Acute toxicity, rat; iv
  LD50: > 5000 mg/kg
Acute toxicity, rat; po
  LD50: > 5000 mg/kg
Acute toxicity, rabbit
  LD50: ~3500 mg/kg

## CC1=CCC(CC2SCCN2C(=O)c2ccccc2C(=O)[O-])C1(C)C.[Na+] (stereo not drawn) [CO/1178, 2-[(2-{2',2',3'-trimethyl-cyclopenten-3'yl}-methyl)-1,3-thiazolidin-3-yl]-carbonyl-benzoic acid, Na salt]
[1]; 10 mg/kg i.v., 0-4 h vs -4-0 h
  Mucoproduction Var. %: +19.9%
[1]; 10 mg/kg i.v.
  Mucoproduction at hours 0 - 4: 26.890 ± 6.210 mg/h

## CCCC1SCCN1C(=O)c1ccccc1C(=O)O (stereo not drawn) [CO/1226, 2-[(2-propyl)-1,3-thiazolidin-3-yl]-carbonyl-benzoic acid (Na salt)]
[1]; 10 mg/kg i.v.
  Mucoproduction at hours 0 - 4: 29.730 ± 4.510 mg/h
[1]; [4]
  change in vivo at 10 mg/kg: 26.9%

## CC(S)C(=O)NCC(=O)O (racemic) [Mercaptopropionylglycine]
[1]; 10 mg/kg i.v.
  Mucoproduction at hours 0 - 4: 32.121 ± 1.013 mg/h
[1]; 20 mg/kg i.v.
  Mucoproduction at hours 0 - 4: 36.630 ± 1.565 mg/h
[1]; 400 mg/kg os
  Mucoproduction at hours 0 - 4: 32.053 ± 1.292 mg/h
[1]; 600 mg/kg os
  Mucoproduction at hours 0 - 4: 34.432 ± 1.813 mg/h
[1]; [4]
  change in vivo at 10 mg/kg: 33.8%
[1]; Oryctolagus cuniculus, iv, 20 mg/kg i.v., 0-4 h vs -4-0 h, read-out: Mucoproduction Var. %
  change in vivo at 20 mg/kg: 43%
[1]; [6]
  change in vivo at 400 mg/kg: 45%
[1]; [7]
  change in vivo at 600 mg/kg: 49.9%

## O=C(O)c1ccccc1C(=O)N1CCSC1c1ccccc1 (stereo not drawn) [CO/1220, 2-[(2-phenyl)-1,3-thiazolidin-3-yl]-carbonyl-benzoic acid (Na salt)]
[1]; 10 mg/kg i.v.
  Mucoproduction at hours 0 - 4: 31.300 ± 2.240 mg/h
[1]; [4]
  change in vivo at 10 mg/kg: 43.5%

## CN(Cc1cc(Br)cc(Br)c1N)C1CCCCC1 [Bromexine]
[1]; 400 mg/kg os
  Mucoproduction at hours 0 - 4: 27.414 ± 1.071 mg/h
[1]; 600 mg/kg os
  Mucoproduction at hours 0 - 4: 34.440 ± 1.446 mg/h
[1]; [6]
  change in vivo at 400 mg/kg: 31.3%
[1]; [7]
  change in vivo at 600 mg/kg: 40.6%

## N[C@@H](CSCC(=O)O)C(=O)O [S--Carboxymethylcysteine]
[1]; 400 mg/kg os
  Mucoproduction at hours 0 - 4: 35.339 ± 1.376 mg/h
[1]; 600 mg/kg os
  Mucoproduction at hours 0 - 4: 32.120 ± 1.630 mg/h
[1]; [6]
  change in vivo at 400 mg/kg: 31.2%
[1]; [7]
  change in vivo at 600 mg/kg: 34.2%
